What all share (assay type): cell-based
For data set [1], the system named is HTLV-III/LAV. The experiment in a line: Inhibition of cytopathic effect (syncytial giant cell formation) in HTLV-III/LAV infected H9 cells. Particulars: cytopathic effect (syncytial giant cell formation) on day 7 post infection 50% that in drug-free control cultures, read-out: CPE* 50% Inhibitory Concentrations. The method, then: (§1) The antiviral activity of the compounds of the present invention against the HTLV-III/LAV virus was evaluated by determining the degree of inhibition of cytopathic effect (CPE) and reverse transcriptase (RT) activity of the drug in a subline of H9 cells at various concentrations.
(§2) HTLV-III/LAV inoculum was standardized for reverse transcriptase (RT) activity using purified avian myeloblastosis viral RT (BRL Labs, Gaithersberg, MD) and used to infect polybrene treated H9 cells at 0.02 RT units of HTLV-III/LAV per 2 x 10⁶ cells. The virus was adsorbed for two hours at 37°C and then the cells were washed and resuspended in RPMI-10% fetal bovine serum at 2 x 10⁵ cells/ml and dispersed in 1-ml aliquots into 24-well plates.
Syncytial giant cell formation appeared at 5-6 days post infection, and this cytopathic effect (CPE) was quantitatively measured by dispersing 0.1-ml aliquots into 0.1-ml portions of absolute methanol and enumerating the giant cells microscopically. The inhibition of cytopathic effect by treatment with representative compounds of the present invention is shown in the table, together with the inhibitory effect on reverse transcriptase activity.
For orientation: Cytopathic effects are the visible damage that an infection or toxin causes in cultured cells.

The subject of data set [2] is HTLV-III/LAV. The experiment in a line: Inhibition of reverse transcriptase activity in culture medium of HTLV-III/LAV infected H9 cells. Particulars: reverse transcriptase in the culture medium on day 10 post infection 50% that in drug-free control cultures, read-out: RT** 50% Inhibitory Concentrations. The method, then: as §1, §2
Reverse transcriptase activity (RT) was measured using 1-ml culture aliquots which were clarified at 600 xg for 30 minutes, precipitated in 10% polyethylene glycol-0.13 M NaCl at 4°C for eighteen hours, and centrifuged at 600 xg for sixty minutes. The pellet was dissolved in glycerol-Tris buffer (50% glycerol, 25 mM Tris HCl, pH 7.5, 5 mM dithiothreitol, 15 mM KCl, 0.025% Triton-X, and 0.25 mM EDTA). […] Background counts were determined using poly dA oligo dT₁₂₋₁₈ as template and subtracted from the poly rA dT primer to determine the thymidine incorporation specifically due to reverse transcriptase activity. […]

For a further data set, the system named is uninfected H9 cells. Particulars: human, 6 day. How it is done: as §1

A value given as a limit tells only on which side of the number the result lay.

Turning to `Nc1ncnc2c1ncn2[C@@H]1O[C@H](COP(=O)(O)O)[C@@H](O)[C@@H]1O` [9-(β-D-arabinofuranosyl)adenine, 5′-phosphate], the IC50 is 18 µM with HTLV-III/LAV [1] and 11 µM with HTLV-III/LAV [2].

Turning to `Nc1ncnc2c1ncn2[C@@H]1O[C@H](CO)[C@@H](O)[C@@H]1O` [9-(β-D-arabinofuranosyl)adenine], the IC50 with HTLV-III/LAV [1] (Human immunodeficiency virus 1, 168 h) turned out to be 7 µM; in the data set on HTLV-III/LAV [2] (Human immunodeficiency virus 1, 240 h), 7 µM. Besides, the “Cell Number*** 50% Inhibitory Concentrations” value with uninfected H9 cells is over 100 µM.

(Values after patent EP0317728A2, “Use of 9-(beta-D-arabinofuranosyl) adenine derivatives for the preparation of pharmaceutical compositions for the treatment of aids” (WARNER-LAMBERT COMPANY, priority 1987, dated 1989).)
